In US20060269601A1, “Oral modified release formulations containing 8-prenylnaringenin for continuous estrogen support” (priority 2005, published 2006):

Key:
[1] = Clinical Phase Ia study: drug serum levels after single oral dose of 8-prenylnaringenin; format: in vivo, human (postmenopausal women)
From the text: The pharmacokinetic profile of 8-prenylnaringenin is characterized by a complete oral absorption, a low degree of metabolization (less than 60% of dose) and a high pre-systemic elimination (first-liver-pass excretion; about 55% of dose). This high and unexpected pre-systemic elimination leads to an accumulation of substantial amounts in the bile fluid from which they are secreted into the duodenum when gastric signaling occurs with food intake. The 8-prenylnaringenin is then absorbed again and enters systemic circulation. Data were taken from the clinical Phase Ia study and represent two volunteers in the lowest dose group (50 mg 8-prenylnaringenin).
Taking the total area under the curve as a measure of 8-prenylnaringenin systemic availability, the percentage of the area under the second peak (generated by reabsorption of the pre-systemically eliminated and then biliary secreted amounts) can be used to estimate those portions of the doses that undergo pre-systemic elimination after oral dosing. The average figure was 54±20% for the six women in the study.
Re-increases in drug serum levels show reabsorption of dose parts collected in the bile fluid and subsequently secreted triggered by intake of the midday meal.
8-prenylnaringenin is analyzed by a specifically developed radio-immunoassay. A 4′-O hapten ({4-[5,7-Dihydroxy-8-(3-methyl-but-2-enyl)-4-oxo-chroman-2-yl]-phenoxy}-acetic acid) was synthesized starting from racemic naringenin and coupled to cationized bovine serum albumin (cBSA). This antigen was mixed with Freund's adjuvants and injected into rabbits. The antiserum resulting after several boosters was isolated as an IgG fraction and used in a final dilution of 1:100.000. A tritiated tracer was synthesized by preparation of the 3′,5′-dibromo derivative of 8-prenylnaringenin, again starting from racemic naringenin. Both bromine atoms were exchanged to ^3H in a final, palladium-catalyzed step leading to the tritiated tracer of a specific radioactivity of 2.22 GBq/mg.
Biological matrices, i.e. blood plasma, blood serum, or urine, are either directly extracted with tert-butyl methyl ether (tert-BME) or after enzymatic de-conjugation by means of glucuronidase/arylsulfatase (Helix pomatia). Organic layers are separated, evaporated and the residues taken up in assay buffer. Extract residues or dilutions of standard 8-prenylnaringenin solutions are then mixed with antiserum and tracer and kept at 4° C. overnight. Dextran-coated charcoal is added to separate bound and free 8-prenylnaringenin and bound radioactivity is quantified with a liquid scintillation counter after addition of a scintillation cocktail.

[2] = pH-dependent solubility of 8-prenylnaringenin; format: physicochemical; details: dependence on pH
From the text: The solid oral modified release formulations of this invention show a pH-independent drug release in vitro. This is important as the pH varies considerably in the gastro-intestinal tract and continuous release should be achieved independent of the pH. However, the solubility of 8-prenylnaringenin is pH-dependent. […] The low acid solubility property of 8-prenylnaringenin results in vitro in slow drug dissolution at pH 1, whereas the dissolution is fast at higher pH-values such as pH 6.8. The resulting dissolution profiles are different at different pH-values. This problem is solved by the solid oral modified release formulation of this invention.

[3] = In vitro release/dissolution from mini-matrix tablets, basket apparatus USP XXV; format: physicochemical
Description: Measurement of the active ingredient release from mini-matrix tablets is carried out according to a one-compartment method (basket apparatus), as described in U.S. Pharmacopeia USP XXV. The release of 8-prenylnaringenin was examined in phosphate buffer solution, pH 6.8 (composition, see USP XXV) or in 0.1 N HCl. Ten percent (w/w) hydroxypropyl-β-cyclodextrine were added in order to achieve sink conditions and primarily control the drug release by the dosage form.

uterus = details: compared with estradiol at equivalent bone protective doses; cited from earlier work

**Q.** Which “percentage of the area under the second peak of total area under the curve (portion of dose undergoing pre-systemic elimination)” value ([1]; average for the six women in the study, after oral dosing) does the source give for `CC(C)=CCc1c(O)cc(O)c2c1OC(c1ccc(O)cc1)CC2=O` (centres unmarked) [8-prenylnaringenin, 5,7-Dihydroxy-2-(4-hydroxyphenyl)-8-(3-methylbut-2-enyl)-chroman-4-on] here?
**A.** 54±20%

**Q.** And the degree of metabolization ([1]; oral dosing, human)?
**A.** less than 60 % of dose

**Q.** What about the oral absorption ([1]; oral dosing, human) of the same molecule?
**A.** complete

**Q.** What about the “pre-systemic elimination (first-liver-pass excretion)” value ([1]; oral dosing, human) of the same molecule?
**A.** about 55 % of dose

**Q.** And the solubility [2]?
**A.** pH-dependent

**Q.** What about the “drug dissolution in vitro” value ([3]; higher pH-values such as pH 6.8) of the same molecule?
**A.** fast

**Q.** What about the “drug dissolution in vitro” value ([3]; pH 1) of the same molecule?
**A.** slow

**Q.** What about the “activity on the uterus” value (uterus) of the same molecule?
**A.** much lower activity on the uterus than estradiol
